# pIC50: −log10 of the molar value. Like-named read-outs stand apart in the source and are kept apart here.
# Experiments:
# Mcl-1/Bim interaction = Mcl-1/Bim interaction (Homo sapiens (Human), UniProt Q07820); test: Cell Free Mcl-1: Bim Affinity Assay (Mcl-1 HTRF); assay type: binding; settings: TR-FRET, recombinant human Mcl-1(171-327), biotin-Bim(51-76); read-out: Mel-1 HTRF IC50
# How it was run: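 TR-FRET competition assay: 0.1 nM His-tagged human Mcl-1(171-327) and 0.05 nM biotin-Bim(51-76) were pre-incubated 60 min with compound in 20 mM Hepes pH 7.5, 150 mM NaCl, Brij35, 1 mM DTT, then with Eu-anti-His/streptavidin-Xlent overnight. The 665/620 nm ratio was fitted by four-parameter model to IC50 (duplicates).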
# OPM-2 = test: Cell Viability Assay (OPM-2 10 FBS); assay type: cell-based, human; settings: OPM-2 cells, CellTiter-Glo, read-out: OPM-2 10% FBS IC50 IP
# How it was run: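 OPM-2 myeloma cells seeded at 3000 cells/well in RPMI 1640 with 10% FBS and exposed to serially diluted compounds for 16 h at 37° C., 5% CO2.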
# Sequence of Mcl-1/Bim interaction (Q07820 171-327): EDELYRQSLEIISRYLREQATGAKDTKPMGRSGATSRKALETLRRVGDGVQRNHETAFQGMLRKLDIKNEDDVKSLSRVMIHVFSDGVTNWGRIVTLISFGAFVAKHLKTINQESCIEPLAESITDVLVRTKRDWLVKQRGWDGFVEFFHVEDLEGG
Compound,pIC50 (Mcl-1/Bim interaction),pIC50 (OPM-2; 16 h),"pIC50 (OPM-2; Homo sapiens, OPM-2, 16 h)"
"C[C@@H]1[C@@H](C)CCC[C@H]([C@H]2OC[C@H](O)CO2)[C@@H]2CC[C@H]2CN2C[C@@]3(CCCc4cc(Cl)ccc43)COc3ccc(cc32)C(=O)NS1(=O)=O [Example 12, (1S,3′R,6′R,7′S,11′S,12′R)-6-chloro-7′-(trans-5-hydroxy-1,3-dioxan-2-yl)-11′,12′-dimethyl-3,4-dihydro-2H,15′H-spiro[naphthalene-1,22′-[20]oxa[13]thia[1,14]diazatetracyclo [14.7.2.0~3,6~.0~19,24~]pentacosa[16,18,24]trien]-15′-one 13′,13′-dioxide]",9.42,6.18,–
"C[C@@H]1[C@@H](C)CCC[C@H]([C@H]2OC[C@H](O)CO2)[C@@H]2CC[C@H]2CN2C[C@@]3(CCCc4cc(Cl)ccc43)COc3ccc(cc32)C(=O)NS1(=O)=O [Example 13, (1S,3′R,6′R,7′S,11′S,12′R)-6-chloro-7′-(trans-5-hydroxy-1,3-dioxan-2-yl)-11′,12′-dimethyl-3,4-dihydro-2H,15′H-spiro[naphthalene-1,22′-[20]oxa[13]thia[1,14]diazatetracyclo [14.7.2.0~3,6~.0~19,24~]pentacosa[16,18,24]trien]-15′-one 13′,13′-dioxide]",9.26,6.20,–
"C[C@@H]1[C@@H](C)CCC[C@H]([C@H]2OC[C@H](O)CO2)[C@@H]2CC[C@H]2CN2C[C@@]3(CCCc4cc(Cl)ccc43)COc3ccc(cc32)C(=O)NS1(=O)=O [Example 14, (1S,3′R,6′R,7′S,11′S,12′R)-6-chloro-7′-(trans-5-hydroxy-1,3-dioxan-2-yl)-11′,12′-dimethyl-3,4-dihydro-2H,15′H-spiro[naphthalene-1,22′-[20]oxa[13]thia[1,14]diazatetracyclo [14.7.2.0~3,6~.0~19,24~]pentacosa[16,18,24]trien]-15′-one 13′,13′-dioxide]",9.12,5.70,–
"C[C@@H]1[C@@H](C)CCC[C@H]([C@H]2OC[C@@H](N3CCCC3)CO2)[C@@H]2CC[C@H]2CN2C[C@@]3(CCCc4cc(Cl)ccc43)COc3ccc(cc32)C(=O)NS1(=O)=O [Example 19, (1S,3′R,6′R,7′S,11′S,12′R)-6-chloro-11′,12′-dimethyl-7′-(cis-5-(1-pyrrolidinyl)-1,3-dioxan-2-yl)-3,4-dihydro-2H,15′H-spiro[naphthalene-1,22′-[20]oxa[13]thia[1,14]diazatetracyclo [14.7.2.0~3,6~.0~19,24~]pentacosa[16,18,24]trien]-15′-one 13′,13′-dioxide]",8.98,6.28,–
"C[C@@H]1[C@@H](C)CCC[C@H]([C@H]2OC[C@@H](N3CCCC3)CO2)[C@@H]2CC[C@H]2CN2C[C@@]3(CCCc4cc(Cl)ccc43)COc3ccc(cc32)C(=O)NS1(=O)=O [Example 22, (1S,3′R,6′R,7′S,11′S,12′R)-6-chloro-11′,12′-dimethyl-7′-(cis-5-(1-pyrrolidinyl)-1,3-dioxan-2-yl)-3,4-dihydro-2H,15′H-spiro[naphthalene-1,22′-[20]oxa[13]thia[1,14]diazatetracyclo [14.7.2.0~3,6~.0~19,24~]pentacosa[16,18,24]trien]-15′-one 13′,13′-dioxide]",9.35,7.19,–
"CCN[C@H]1CO[C@H]([C@H]2CCC[C@H](C)[C@@H](C)S(=O)(=O)NC(=O)c3ccc4c(c3)N(C[C@@H]3CC[C@H]32)C[C@@]2(CCCc3cc(Cl)ccc32)CO4)OC1 [Example 27, (1S,3′R,6′R,7′S,11′S,12′R)-6-chloro-7′-(trans-5-(ethylamino)-1,3-dioxan-2-yl)-11′,12′-dimethyl-3,4-dihydro-2H,15′H-spiro[naphthalene-1,22′-[20]oxa[13]thia[1,14]diazatetracyclo [14.7.2.0~3,6~.0~19,24~]pentacosa[16,18,24]trien]-15′-one 13′,13′-dioxide]",9.43,–,6.81
"CCN(CC)[C@H]1CO[C@H]([C@H]2CCC[C@H](C)[C@@H](C)S(=O)(=O)NC(=O)c3ccc4c(c3)N(C[C@@H]3CC[C@H]32)C[C@@]2(CCCc3cc(Cl)ccc32)CO4)OC1 [Example 28, (1S,3′R,6′R,7′S,11′S,12′R)-6-chloro-7′-(trans-5-(diethylamino)-1,3-dioxan-2-yl)-11′,12′-dimethyl-3,4-dihydro-2H,15′H-spiro[naphthalene-1,22′-[20]oxa[13]thia[1,14]diazatetracyclo [14.7.2.0~3,6~.0~19,24~]pentacosa[16,18,24]trien]-15′-one 13′,13′-dioxide]",9.32,–,6.39
"CC(=O)N1C[C@@H]2O[C@@H]([C@H]3CCC[C@H](C)[C@@H](C)S(=O)(=O)NC(=O)c4ccc5c(c4)N(C[C@@H]4CC[C@H]43)C[C@@]3(CCCc4cc(Cl)ccc43)CO5)O[C@@H]2C1 [Example 36, (1S,3′R,6′R,7′S,11′S,12′R)-7′-((2r,3aR,6aS)-5-acetyltetrahydro-3aH-[1,3]dioxolo[4,5-c]pyrrol-2-yl)-6-chloro-11′,12′-dimethyl-3,4-dihydro-2H,15′H-spiro[naphthalene-1,22′-[20]oxa[13]thia[1,14]diazatetracyclo [14.7.2.0~3,6~.0~19,24~]pentacosa[16,18,24]trien]-15′-one 13′,13′-dioxide]",9.66,6.77,–
"CC(=O)N1C[C@@H]2O[C@H]([C@H]3CCC[C@H](C)[C@@H](C)S(=O)(=O)NC(=O)c4ccc5c(c4)N(C[C@@H]4CC[C@H]43)C[C@@]3(CCCc4cc(Cl)ccc43)CO5)O[C@@H]2C1 [Example 37, (1S,3′R,6′R,7′S,11′S,12′R)-7′-((2s,3aR,6aS)-5-acetyltetrahydro-3aH-[1,3]dioxolo[4,5-c]pyrrol-2-yl)-6-chloro-11′,12′-dimethyl-3,4-dihydro-2H,15′H-spiro[naphthalene-1,22′-[20]oxa[13]thia[1,14]diazatetracyclo [14.7.2.0~3,6~.0~19,24~]pentacosa[16,18,24]trien]-15′-one 13′,13′-dioxide]",10.01,6.83,–
"CC(=O)N1C[C@@H]2O[C@@H]([C@H]3CCC[C@H](C)[C@@H](C)S(=O)(=O)NC(=O)c4ccc5c(c4)N(C[C@@H]4CC[C@H]43)C[C@@]3(CCCc4cc(Cl)ccc43)CO5)O[C@@H]2C1 [Example 38, (1S,3′R,6′R,7′S,11′S,12′R)-7′-((2r,3aR,6aS)-5-acetyltetrahydro-3aH-[1,3]dioxolo[4,5-c]pyrrol-2-yl)-6-chloro-11′,12′-dimethyl-3,4-dihydro-2H,15′H-spiro[naphthalene-1,22′-[20]oxa[13]thia[1,14]diazatetracyclo [14.7.2.0~3,6~.0~19,24~]pentacosa[16,18,24]trien]-15′-one 13′,13′-dioxide]",9.27,6.09,–
"C[C@@H]1[C@@H](C)CCC[C@H]([C@H]2OC[C@](N)(CO)CO2)[C@@H]2CC[C@H]2CN2C[C@@]3(CCCc4cc(Cl)ccc43)COc3ccc(cc32)C(=O)NS1(=O)=O [Example 40, (1S,3′R,6′R,7′S,11′S,12′R)-7′-(cis-5-amino-5-(hydroxymethyl)-1,3-dioxan-2-yl)-6-chloro-11′,12′-dimethyl-3,4-dihydro-2H,15′H-spiro[naphthalene-1,22′-[20]oxa[13]thia[1,14]diazatetracyclo [14.7.2.0~3,6~.0~19,24~]pentacosa[16,18,24]trien]-15′-one 13′,13′-dioxide]",9.24,5.81,–
"CC(=O)N(C)[C@H]1CO[C@@H]([C@H]2CCC[C@H](C)[C@@H](C)S(=O)(=O)NC(=O)c3ccc4c(c3)N(C[C@@H]3CC[C@H]32)C[C@@]2(CCCc3cc(Cl)ccc32)CO4)OC1 [Example 47, N-(cis-2-((1S,3′R,6′R,7′S,11′S,12′R)-6-chloro-11′,12′-dimethyl-13′,13′-dioxido-15′-oxo-3,4-dihydro-2H-spiro[naphthalene-1,22′-[20]oxa[13]thia[1,14]diazatetracyclo [14.7.2.0~3,6~.0~19,24~]pentacosa[16,18,24]trien]-7′-yl)-1,3-dioxan-5-yl)-N-methylacetamide]",9.25,–,6.26
"CN[C@H]1CO[C@H]([C@H]2CCC[C@H](C)[C@@H](C)S(=O)(=O)NC(=O)c3ccc4c(c3)N(C[C@@H]3CC[C@H]32)C[C@@]2(CCCc3cc(Cl)ccc32)CO4)OC1 [Example 48, (1S,3′R,6′R,7′S,11′S,12′R)-6-chloro-11′,12′-dimethyl-7′-(trans-5-(methylamino)-1,3-dioxan-2-yl)-3,4-dihydro-2H,15′H-spiro[naphthalene-1,22′-[20]oxa[13]thia[1,14]diazatetracyclo [14.7.2.0~3,6~.0~19,24~]pentacosa[16,18,24]trien]-15′-one 13′,13′-dioxide]",9.23,6.74,–
"CN[C@H]1CO[C@H]([C@H]2CCC[C@H](C)[C@@H](C)S(=O)(=O)NC(=O)c3ccc4c(c3)N(C[C@@H]3CC[C@H]32)C[C@@]2(CCCc3cc(Cl)ccc32)CO4)OC1 [Example 49, (1S,3′R,6′R,7′S,11′S,12′R)-6-chloro-11′,12′-dimethyl-7′-(trans-5-(methylamino)-1,3-dioxan-2-yl)-3,4-dihydro-2H,15′H-spiro[naphthalene-1,22′-[20]oxa[13]thia[1,14]diazatetracyclo [14.7.2.0~3,6~.0~19,24~]pentacosa[16,18,24]trien]-15′-one 13′,13′-dioxide]",8.82,6.02,–

# Source: patent US11364248B2 (AMGEN INC., priority 2017, dated 2022)
